From patent US20260159512A1, “BCAT2 INHIBITORS” (AGIOS PHARMACEUTICALS, INC., priority 2021, published 2026)

target: T1, BCAT2 (Homo sapiens, UniProt O15382); assay: BCAT2 in vitro enzyme inhibition assay (resazurin/diaphorase-coupled fluorescence); format: biochemical; conditions: average where tested multiple times
T1 sequence (O15382 28-392): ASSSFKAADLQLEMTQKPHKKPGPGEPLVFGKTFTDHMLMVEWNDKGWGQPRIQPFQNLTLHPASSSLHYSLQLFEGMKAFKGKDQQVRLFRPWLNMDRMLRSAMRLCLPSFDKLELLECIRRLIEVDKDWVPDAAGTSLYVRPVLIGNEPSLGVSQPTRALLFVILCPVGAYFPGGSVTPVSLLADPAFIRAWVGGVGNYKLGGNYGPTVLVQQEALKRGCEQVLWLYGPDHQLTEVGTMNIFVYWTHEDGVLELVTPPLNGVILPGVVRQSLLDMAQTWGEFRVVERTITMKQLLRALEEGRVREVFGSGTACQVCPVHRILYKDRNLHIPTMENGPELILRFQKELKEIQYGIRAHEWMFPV
Procedure: BCAT2 In Vitro Enzyme Inhibition Assay
1.67× hBCAT2 Enzyme Mix: 0.33 μg/mL hBCAT2, 1× Buffer
2.5× Substrate Mix: 460 μM L-leucine, 420 μM α-KetoGlutarate, 10 U/mL glutamate dehydrogenase, 10 mM NAD, 30 μg/mL diaphorase, 20 μm Resazurin
BCAT2 enzyme stock solution was diluted to prepare a 1.67× hBCAT2 Enzyme Mix. 1 μL of test compound was first added to the reaction wells followed by 30 μL of 1.67× hBCAT2 Enzyme Mix and incubated at room temperature (25° C.) for one hour. Meanwhile the Substrate Mix was prepared. The reaction was initiated by the addition of 20 μL of the 2.5× Substrate Mix, bringing the final reaction mix of all components to 1×. Reactions were quenched after one hour by the addition of 25 μL of 6% SDS and reaction progress was measured via fluorescence read (Ex 540/Em 590).
Test Compound Preparation:
Test compounds were prepared at 50× final concentration in DMSO, 1 to 3 dilutions were made for 10 points. The compounds were added to the assay as a 1 to 50 dilution (1 μL in 50 μL) to yield a top assay final concentration of 100 μM, decreasing 3-fold for 10 points. Each compound dilution series test also included an assay max (1 μL DMSO Added in lieu of compound, Full Reaction Components Included) and Min (1 μL DMSO Added in lieu of compound, 30 μl of 1.67× hBCAT2 Enzyme Mix replated by 30 μL of 1× Buffer). All tests were performed in technical duplicate.
Where a compound was tested multiple times, the average value of the tests is reported.

| Structure (SMILES) | IC50 [nM] |
| --- | --- |
| COC(=O)O[C@@H]1[C@@H](NC(=O)c2ncc(Cl)s2)CCC[C@H]1n1c(-c2ccccc2F)nc2cnc(-c3nc[nH]n3)cc21 [Example 447, (1R,2S,6R)-2-(5-chlorothiazole-2-carboxamido)-6-(2-(2-fluorophenyl)-6-(1H-1,2,4-triazol-3-yl)-1H-imidazo[4,5-c]pyridin-1-yl)cyclohexyl methyl carbonate] | 100 to 500 |
| COC[C@@H]1CCCN1c1cc2c(cn1)nc(-c1ccccc1F)n2[C@@H]1CCC[C@H](NC(=O)c2ncc(Cl)s2)C1 [Example 197, 5-chloro-N-((1S,3R)-3-(2-(2-fluorophenyl)-6-((S)-2-(methoxymethyl)pyrrolidin-1-yl)-1H-imidazo[4,5-c]pyridin-1-yl)cyclohexyl)thiazole-2-carboxamide] | > 1000 |
| O=C(N[C@H]1CCC[C@@H](n2c(-c3ccccc3F)nc3cnc(-n4ccccc4=O)cc32)C1)c1ncc(Cl)s1 [Example 357, 5-chloro-N-((1S,3R)-3-(2-(2-fluorophenyl)-6-(2-oxopyridin-1(2H)-yl)-1H-imidazo[4,5-c]pyridin-1-yl)cyclohexyl)thiazole-2-carboxamide] | 500 to 1000 |
| O=C(NC1COCC(n2c(-c3ncccc3F)nc3cnc(-n4ccnn4)cc32)C1)c1ncc(C(F)F)s1 (single isomer, unassigned) [Example 145, 5-(difluoromethyl)-N-(5-(2-(3-fluoropyridin-2-yl)-6-(1H-1,2,3-triazol-1-yl)-1H-imidazo[4,5-c]pyridin-1-yl)tetrahydro-2H-pyran-3-yl)thiazole-2-carboxamide] | > 1000 |
| CN(C)Cc1ccccc1-c1nc2cnc(-c3nc[nH]n3)cc2n1[C@@H]1CCC[C@H](NC(=O)c2ncc(Cl)s2)C1 [Example 375, 5-chloro-N-((1S,3R)-3-(2-(2-((dimethylamino)methyl)phenyl)-6-(1H-1,2,4-triazol-3-yl)-1H-imidazo[4,5-c]pyridin-1-yl)cyclohexyl)thiazole-2-carboxamide] | 500 to 1000 |
| O=C(N[C@H]1C[C@@H](n2c(-c3ccccc3F)nc3cnc(-c4nc[nH]n4)cc32)CS(=O)(=O)C1)c1ccc(Cl)s1 [Example 457, 5-chloro-N-((3S,5R)-5-(2-(2-fluorophenyl)-6-(1H-1,2,4-triazol-3-yl)-1H-imidazo[4,5-c]pyridin-1-yl)-1,1-dioxidotetrahydro-2H-thiopyran-3-yl)thiophene-2-carboxamide] | 100 to 500 |
| CC(C)Cc1nc2cnc(-c3ccn[nH]3)cc2n1[C@H]1CCC[C@@H](NC(=O)c2ncc(Cl)s2)[C@@H]1O [Example 226, 5-chloro-N-((1R,2S,3S)-2-hydroxy-3-(2-isobutyl-6-(1H-pyrazol-5-yl)-1H-imidazo[4,5-c]pyridin-1-yl)cyclohexyl)thiazole-2-carboxamide] | > 1000 |
| N#C[C@H]1[C@@H](NC(=O)c2ncc(Cl)s2)CCC[C@H]1n1c(-c2ccccc2F)nc2cnc(-c3nc[nH]n3)cc21 [Example 452, 5-chloro-N-((1S,2S,3R)-2-cyano-3-(2-(2-fluorophenyl)-6-(1H-1,2,4-triazol-3-yl)-1H-imidazo[4,5-c]pyridin-1-yl)cyclohexyl)thiazole-2-carboxamide] | > 1000 |
| CC(O)Cc1nc2cnc(-c3ccccn3)cc2n1[C@@H]1CCC[C@H](NC(=O)c2ncc(Cl)s2)C1 (stereo partly drawn) [Example 360, 5-chloro-N-((1S,3R)-3-(2-(2-hydroxypropyl)-6-(pyridin-2-yl)-1H-imidazo[4,5-c]pyridin-1-yl)cyclohexyl)thiazole-2-carboxamide] | > 1000 |
| O=C(N[C@H]1CCC[C@@H](n2c(-c3ccccc3OCCO)nc3cnc(-c4nc[nH]n4)cc32)C1)c1ncc(Cl)s1 [Example 382, 5-chloro-N-((1S,3R)-3-(2-(2-(2-hydroxyethoxy)phenyl)-6-(1H-1,2,4-triazol-3-yl)-1H-imidazo[4,5-c]pyridin-1-yl)cyclohexyl)thiazole-2-carboxamide] | ≤ 100 |
| [N-]=[N+]=N[C@@H]1[C@@H](NC(=O)c2ncc(Cl)s2)CCC[C@H]1n1c(-c2ccccc2F)nc2cnc(-c3nc[nH]n3)cc21 [Example 449, N-((1S,2R,3R)-2-azido-3-(2-(2-fluorophenyl)-6-(1H-1,2,4-triazol-3-yl)-1H-imidazo[4,5-c]pyridin-1-yl)cyclohexyl)-5-chlorothiazole-2-carboxamide] | ≤ 100 |
| CC(=O)N[C@H](c1nc2cnc(-c3nc[nH]n3)cc2n1[C@@H]1CCC[C@H](NC(=O)c2ncc(Cl)s2)C1)C(C)C [Example 368, N-((1S,3R)-3-(2-((S)-1-acetamido-2-methylpropyl)-6-(1H-1,2,4-triazol-3-yl)-1H-imidazo[4,5-c]pyridin-1-yl)cyclohexyl)-5-chlorothiazole-2-carboxamide] | > 1000 |
| COCCOc1ccccc1-c1nc2cnc(-c3nc[nH]n3)cc2n1[C@@H]1CCC[C@H](NC(=O)c2ncc(Cl)s2)C1 [Example 464, 5-chloro-N-((1S,3R)-3-(2-(2-(2-methoxyethoxy)phenyl)-6-(1H-1,2,4-triazol-3-yl)-1H-imidazo[4,5-c]pyridin-1-yl)cyclohexyl)thiazole-2-carboxamide] | ≤ 100 |
| CC(C)Cc1nc2cnc(-c3nc[nH]n3)cc2n1[C@@H]1CCC[C@H](NC(=O)c2ncc(Cl)s2)[C@@H]1O [Example 408, 5-chloro-N-((1S,2S,3R)-2-hydroxy-3-(2-isobutyl-6-(1H-1,2,4-triazol-3-yl)-1H-imidazo[4,5-c]pyridin-1-yl)cyclohexyl)thiazole-2-carboxamide] | ≤ 100 |
| [N-]=[N+]=N[C@H]1[C@@H](NC(=O)c2ncc(Cl)s2)CCC[C@H]1n1c(-c2ccccc2F)nc2cnc(-c3nc[nH]n3)cc21 [Example 450, N-((1S,2S,3R)-2-azido-3-(2-(2-fluorophenyl)-6-(1H-1,2,4-triazol-3-yl)-1H-imidazo[4,5-c]pyridin-1-yl)cyclohexyl)-5-chlorothiazole-2-carboxamide] | > 1000 |
| CO[C@@H]1C[C@@H](NC(=O)c2ncc(Cl)s2)C[C@@H](n2c(CC(C)C)nc3cnc(-n4nccn4)cc32)C1 (single isomer, unassigned) [Example 422] | > 1000 |
| CS(=O)(=O)N1C[C@@H](NC(=O)c2ncc(Cl)s2)C[C@@H](n2c(-c3ccccc3F)nc3cnc(-c4nc[nH]n4)cc32)C1 [Example 461, 5-chloro-N-((3S,5R)-5-(2-(2-fluorophenyl)-6-(1H-1,2,4-triazol-3-yl)-1H-imidazo[4,5-c]pyridin-1-yl)-1-(methylsulfonyl)piperidin-3-yl)thiazole-2-carboxamide] | ≤ 100 |
| CC(C)Cc1nc2cnc(-n3cc(F)cn3)cc2n1[C@H]1C[C@H](O)C[C@@H](NC(=O)c2ncc(Cl)s2)C1 [Example 222, 5-chloro-N-((1S,3R,5R)-3-(6-(4-fluoro-1H-pyrazol-1-yl)-2-isobutyl-1H-imidazo[4,5-c]pyridin-1-yl)-5-hydroxycyclohexyl)thiazole-2-carboxamide] | > 1000 |
| CS(=O)(=O)O[C@@H]1[C@@H](NC(=O)c2ncc(Cl)s2)CCC[C@H]1n1c(-c2ccccc2F)nc2cnc(-c3nc[nH]n3)cc21 [Example 448, (1R,2S,6R)-2-(5-chlorothiazole-2-carboxamido)-6-(2-(2-fluorophenyl)-6-(1H-1,2,4-triazol-3-yl)-1H-imidazo[4,5-c]pyridin-1-yl)cyclohexyl methanesulfonate] | 500 to 1000 |
